# Laboratory results published in ChEMBL document CHEMBL1201862, “PubChem BioAssay data set” (2004).
#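 Following 48 hours of exposure in 96-well plates, responses at five concentrations were used to interpolate endpoints linearly. GI50 marks 50% less growth.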 Active and inactive are the calls of the source. Cut-off read from the data, not from the text of the source: active = GI50 up to about 1.1 µM and inactive = higher.
# Legend:
# Assay in all cases: NCI anticancer screen, dose series, 48 h
# [1] = test system: OVCAR-5
# [2] = test system: SK-MEL-28
# [3] = test system: HOP-62
# [4] = test system: NCI/ADR-RES
# [5] = test system: LOX IMVI
# [6] = test system: SNB-19
# [7] = test system: OVCAR-8
# [8] = test system: OVCAR-3
# [9] = test system: SF-539
# [10] = test system: UACC-257
# [11] = test system: RPMI-8226
# [12] = test system: MCF7
# [13] = test system: EKVX
# [14] = test system: A498
# [15] = test system: ACHN
# [16] = test system: MDA-N
# [17] = test system: T47D
# [18] = test system: MDA-MB-435
# [19] = test system: TK-10
# [20] = test system: 786-0
SMILES,GI50 [1],GI50 [2],GI50 [3],GI50 [4],GI50 [5],GI50 [6],GI50 [7],GI50 [8],GI50 [9],GI50 [10],GI50 [11],GI50 [12],GI50 [13],GI50 [14],GI50 [15],GI50 [16],GI50 [17],GI50 [18],GI50 [19],GI50 [20]
Cc1c(C2=NN=C(/N=N/c3c(O)cccc3O)/C2=C/c2ccccc2)c(=O)n(-c2ccccc2)n1C,> 100 µM (inactive),> 100 µM (inactive),> 100 µM (inactive),> 100 µM (inactive),> 100 µM (inactive),> 100 µM (inactive),> 100 µM (inactive),> 100 µM (inactive),> 100 µM (inactive),> 100 µM (inactive),> 100 µM (inactive),> 100 µM (inactive),> 100 µM (inactive),> 100 µM (inactive),–,–,–,–,–,–
CN(C)CCNc1c([N+](=O)[O-])cc2c3c(cccc13)C(=O)N(CCN(C)C)C2=O,2.03 µM (inactive),1.67 µM (inactive),2.03 µM (inactive),1.54 µM (inactive),1.08 µM (active),1.59 µM (inactive),1.05 µM (active),1.79 µM (inactive),2.16 µM (inactive),2.08 µM (inactive),2.33 µM (inactive),1.22 µM (inactive),2.15 µM (inactive),1.67 µM (inactive),–,–,–,–,–,–
CCOC(=O)C1=C(c2ccccc2)C12N(Cc1ccccc1)C(=O)C2(c1ccccc1)c1ccccc1 (stereo not drawn),59.8 µM (inactive),74.3 µM (inactive),67 µM (inactive),–,34.9 µM (inactive),96.8 µM (inactive),–,33.8 µM (inactive),45.1 µM (inactive),34.7 µM (inactive),3.16 µM (inactive),38.6 µM (inactive),38.8 µM (inactive),36.8 µM (inactive),37.7 µM (inactive),25.5 µM (inactive),43.2 µM (inactive),34.8 µM (inactive),> 100 µM (inactive),–
O=[N+]([O-])c1ccc(Nc2cccc3c4cc[nH]c(-c5ccccc5)c-4nc23)c([N+](=O)[O-])c1,> 100 µM (inactive),> 100 µM (inactive),> 100 µM (inactive),> 100 µM (inactive),> 100 µM (inactive),> 100 µM (inactive),> 100 µM (inactive),> 100 µM (inactive),> 100 µM (inactive),> 100 µM (inactive),> 100 µM (inactive),54.2 µM (inactive),> 100 µM (inactive),> 100 µM (inactive),–,–,–,–,–,–
C=CCNC(=O)C(C)C1CCC2(C)C=CC(=O)C(C)=C2C1O (stereo not drawn),> 100 µM (inactive),> 100 µM (inactive),> 100 µM (inactive),> 100 µM (inactive),> 100 µM (inactive),> 100 µM (inactive),> 100 µM (inactive),> 100 µM (inactive),> 100 µM (inactive),> 100 µM (inactive),> 100 µM (inactive),> 100 µM (inactive),> 100 µM (inactive),> 100 µM (inactive),–,–,–,–,–,–
O=C1C(Cl)=C(OCCCl)C(=O)c2c(O)ccc(O)c21,17.7 µM (inactive),4.06 µM (inactive),16.7 µM (inactive),15.2 µM (inactive),4.32 µM (inactive),16.7 µM (inactive),13.9 µM (inactive),2.96 µM (inactive),17.3 µM (inactive),2.59 µM (inactive),0.74 µM (active),2.06 µM (inactive),18.6 µM (inactive),20.5 µM (inactive),3.16 µM (inactive),2.91 µM (inactive),1.39 µM (inactive),–,2.6 µM (inactive),6.58 µM (inactive)
COC(=O)C1=C(C(=O)OC)SC(=C(/N=N/c2ccccc2)c2ccccc2)S1,> 100 µM (inactive),> 100 µM (inactive),> 100 µM (inactive),–,> 100 µM (inactive),> 100 µM (inactive),> 100 µM (inactive),61.2 µM (inactive),> 100 µM (inactive),> 100 µM (inactive),> 100 µM (inactive),–,> 100 µM (inactive),> 100 µM (inactive),80.9 µM (inactive),–,–,–,> 100 µM (inactive),50.8 µM (inactive)
COc1ccc(-c2nc(-c3cc4ccccc4oc3=O)cs2)cc1,> 100 µM (inactive),> 100 µM (inactive),32 µM (inactive),47.9 µM (inactive),> 100 µM (inactive),30.1 µM (inactive),23.2 µM (inactive),–,30.9 µM (inactive),> 100 µM (inactive),> 100 µM (inactive),> 100 µM (inactive),> 100 µM (inactive),–,34 µM (inactive),–,> 100 µM (inactive),> 100 µM (inactive),70.6 µM (inactive),31.3 µM (inactive)
Cc1ccc(NC(=O)/C(CC(=O)c2c[n+]([O-])c3ccccc3[n+]2[O-])=N\NC(=O)C[n+]2ccccc2)cc1,> 100 µM (inactive),> 100 µM (inactive),> 100 µM (inactive),–,> 100 µM (inactive),> 100 µM (inactive),> 100 µM (inactive),> 100 µM (inactive),> 100 µM (inactive),> 100 µM (inactive),> 100 µM (inactive),–,> 100 µM (inactive),> 100 µM (inactive),> 100 µM (inactive),–,–,–,> 100 µM (inactive),> 100 µM (inactive)
O=C(O)CCC(NC(=O)c1ccc(Nc2cnc3cc(C(F)(F)F)ccc3n2)cc1)C(=O)O (stereo not drawn),> 100 µM (inactive),> 100 µM (inactive),> 100 µM (inactive),> 100 µM (inactive),> 100 µM (inactive),> 81.5 µM (inactive),> 100 µM (inactive),> 100 µM (inactive),> 100 µM (inactive),> 100 µM (inactive),> 100 µM (inactive),> 100 µM (inactive),> 100 µM (inactive),> 100 µM (inactive),–,–,–,–,–,–
CCC1(C)N=c2c(ncn2N=C(C)C)=C(C(N)=O)N1 (stereo not drawn),> 100 µM (inactive),> 100 µM (inactive),> 100 µM (inactive),> 100 µM (inactive),> 100 µM (inactive),> 100 µM (inactive),> 100 µM (inactive),> 100 µM (inactive),> 100 µM (inactive),> 100 µM (inactive),> 100 µM (inactive),–,> 100 µM (inactive),> 100 µM (inactive),> 100 µM (inactive),> 100 µM (inactive),> 100 µM (inactive),> 100 µM (inactive),> 100 µM (inactive),> 100 µM (inactive)
O=c1ccc2ccccc2o1 [COUMARIN],> 100 µM (inactive),> 100 µM (inactive),> 100 µM (inactive),–,> 100 µM (inactive),> 100 µM (inactive),> 100 µM (inactive),> 100 µM (inactive),> 100 µM (inactive),> 100 µM (inactive),> 100 µM (inactive),–,> 100 µM (inactive),> 100 µM (inactive),> 100 µM (inactive),–,–,–,> 100 µM (inactive),> 100 µM (inactive)
CC12CCC3C(CCC4(O)C=CCCC34C=O)C1(O)CC(O)C2c1ccc(=O)oc1 (stereo not drawn),0.191 µM (active),0.134 µM (active),0.0556 µM (active),0.0679 µM (active),0.0662 µM (active),0.127 µM (active),0.0682 µM (active),0.0625 µM (active),< 0.05 µM (active),0.104 µM (active),0.0697 µM (active),0.0773 µM (active),0.0564 µM (active),0.054 µM (active),–,–,–,–,–,–
CCOC(=O)c1csc(-c2nc(CCNC(=O)c3ccccc3)sc2Cl)n1,> 100 µM (inactive),56.6 µM (inactive),55.7 µM (inactive),41.1 µM (inactive),–,> 100 µM (inactive),45 µM (inactive),45.8 µM (inactive),> 100 µM (inactive),> 100 µM (inactive),44 µM (inactive),67.6 µM (inactive),> 100 µM (inactive),15.4 µM (inactive),> 100 µM (inactive),> 100 µM (inactive),–,62.7 µM (inactive),> 100 µM (inactive),> 100 µM (inactive)
CC1CCCP(=O)(c2ccccc2)CC1 (stereo not drawn),> 100 µM (inactive),> 100 µM (inactive),> 100 µM (inactive),–,> 100 µM (inactive),> 100 µM (inactive),> 100 µM (inactive),> 100 µM (inactive),> 100 µM (inactive),> 100 µM (inactive),> 100 µM (inactive),–,> 100 µM (inactive),> 100 µM (inactive),> 100 µM (inactive),–,–,–,> 100 µM (inactive),> 100 µM (inactive)
CC1=NN(C(=O)c2ccc(Cl)cc2)C(=O)/C1=C/c1cccc([N+](=O)[O-])c1,> 100 µM (inactive),> 100 µM (inactive),> 100 µM (inactive),–,> 100 µM (inactive),> 100 µM (inactive),> 100 µM (inactive),> 100 µM (inactive),> 100 µM (inactive),> 100 µM (inactive),> 100 µM (inactive),–,> 100 µM (inactive),> 100 µM (inactive),> 100 µM (inactive),–,–,–,> 100 µM (inactive),> 100 µM (inactive)
CCOC(=O)c1c(N2CCOCC2)[nH]c(=O)c(C(c2c(Cl)cccc2Cl)c2c(O)c(C(=O)OCC)c(N3CCOCC3)[nH]c2=O)c1O,14.4 µM (inactive),1.93 µM (inactive),16.1 µM (inactive),18 µM (inactive),2.91 µM (inactive),7.45 µM (inactive),8.17 µM (inactive),3.48 µM (inactive),5.11 µM (inactive),5.58 µM (inactive),2.18 µM (inactive),2.47 µM (inactive),18.9 µM (inactive),8.71 µM (inactive),4.54 µM (inactive),–,4.01 µM (inactive),3.48 µM (inactive),4.66 µM (inactive),2.67 µM (inactive)
